In PubChem BioAssay (NCI) one finds GI50 and TGI data, which are given here for six compounds.

Each structure is given as a SMILES string. Values joined by “and” are separate entries in the source; they are usually repeats but may differ in a detail not shown here. Equal values may be shown once.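 Exposure lasted 48 hours, with cells grown in 96-well plates and compounds tested at five concentrations. At the GI50, growth is halved. TGI marks complete inhibition of growth.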 Bounds are passed on as bounds.

Test systems include HL-60(TB) leukemia; HT29 colon; M14 melanoma; MALME-3M melanoma; NCI/ADR-RES ovarian; OVCAR-5 ovarian; OVCAR-8 ovarian; RXF 393 renal; SK-MEL-28 melanoma; SK-MEL-5 melanoma.
What all share (assay): NCI tumour cell line growth inhibition, 48 h

As for `CCN1CCN(CCNc2nccc(-c3c(-c4ccc(F)c(O)c4)nc4occn34)n2)S1(=O)=O`, the GI50 in the experiment on HL-60(TB) leukemia is 4.16 µM; with HT29 colon, 4200 nM; with M14 melanoma it was 4280 nM; with MALME-3M melanoma, 3800 nM; in the experiment with NCI/ADR-RES ovarian it was 3.01 µM; in the experiment with OVCAR-5 ovarian, greater than 100 µM. Besides, the GI50 in the experiment on OVCAR-8 ovarian was 3.63 µM; in the experiment with RXF 393 renal it was 2510 nM; in the experiment on SK-MEL-28 melanoma it was 5680 nM; with SK-MEL-5 melanoma, 2230 nM. Moreover, the TGI with HL-60(TB) leukemia, with HT29 colon, with M14 melanoma, in the experiment on MALME-3M melanoma, in the experiment with NCI/ADR-RES ovarian and in the experiment with OVCAR-5 ovarian was greater than 100 µM each time. In addition, the TGI with OVCAR-8 ovarian was greater than 100 µM; in the experiment on RXF 393 renal, greater than 100 µM; with SK-MEL-28 melanoma it was greater than 100 µM; in the experiment on SK-MEL-5 melanoma, 5.89 µM.

`Cn1ncc(Cl)c1-c1cc(C(=O)N[C@H](CN)Cc2cccc(F)c2)sc1Cl`: the GI50 was > 3.71 µM and 2.48 µM in the experiment with HL-60(TB) leukemia; 733 nM and 2030 nM in the experiment with HT29 colon; 1100 nM and 2000 nM with M14 melanoma; 1080 nM and 969 nM with MALME-3M melanoma; 3.28 µM and 9.52 µM in the experiment on NCI/ADR-RES ovarian; 2.2 µM and 2.69 µM with OVCAR-5 ovarian. Further, the GI50 with OVCAR-8 ovarian was 3.82 µM and 8.34 µM; with RXF 393 renal, 128 nM and 145 nM; in the experiment with SK-MEL-28 melanoma, 1430 nM and 1700 nM; in the experiment on SK-MEL-5 melanoma it was 1960 nM and 3640 nM. The TGI is > 6.27 µM and 8.32 µM in the experiment with HL-60(TB) leukemia; > 6.18 µM and 13.9 µM in the experiment with HT29 colon; 3.14 µM and 6.49 µM with M14 melanoma; 2.61 µM and 2.99 µM with MALME-3M melanoma; > 7.74 µM and 23.5 µM with NCI/ADR-RES ovarian; > 10 µM and 17.2 µM with OVCAR-5 ovarian. Moreover, the TGI in the experiment with OVCAR-8 ovarian was > 7.9 µM and 23.8 µM; with RXF 393 renal it was 1.72 µM and 0.896 µM; in the experiment with SK-MEL-28 melanoma, 4.85 µM and 9.04 µM; in the experiment with SK-MEL-5 melanoma it was 3.99 µM and 8.3 µM.

Take `O=C(c1c(F)c(F)c(F)c(F)c1F)c1c(F)c(F)c(F)c(F)c1F`: the TGI was greater than 100 µM in the experiment on HL-60(TB) leukemia; 3.08 µM in the experiment on HT29 colon; 5.97 µM with M14 melanoma; 3.23 µM in the experiment on MALME-3M melanoma; 14.5 µM in the experiment with NCI/ADR-RES ovarian; 3.65 µM in the experiment on OVCAR-5 ovarian. Also, the TGI was 2.97 µM in the experiment on OVCAR-8 ovarian, 2.94 µM in the experiment on RXF 393 renal, 7.92 µM with SK-MEL-28 melanoma and 8.24 µM with SK-MEL-5 melanoma.

Turning to `COc1cc2nc(N3CCCN(C)CC3)nc(NC3CCN(Cc4ccccc4)CC3)c2cc1OC`, the GI50 with HL-60(TB) leukemia was 1.83 µM; in the experiment on HT29 colon, 1330 nM; in the experiment on M14 melanoma, 1760 nM; in the experiment on MALME-3M melanoma it was 1870 nM; in the experiment with NCI/ADR-RES ovarian, 13.4 µM; in the experiment with OVCAR-5 ovarian it was 4.47 µM. In addition, the GI50 was 3.26 µM in the experiment on OVCAR-8 ovarian, 1330 nM in the experiment on RXF 393 renal, 1880 nM with SK-MEL-28 melanoma and 1730 nM in the experiment on SK-MEL-5 melanoma. In addition, the TGI in the experiment on HL-60(TB) leukemia came out at 4.3 µM; in the experiment on HT29 colon, 5.26 µM; in the experiment on M14 melanoma it was 3.22 µM; with MALME-3M melanoma, 3.37 µM; in the experiment with NCI/ADR-RES ovarian it was 34.8 µM; in the experiment with OVCAR-5 ovarian it was 15.1 µM. In addition, the TGI in the experiment on OVCAR-8 ovarian was found to be 11.8 µM; in the experiment on RXF 393 renal, 3.12 µM; with SK-MEL-28 melanoma it was 3.77 µM; in the experiment on SK-MEL-5 melanoma, 3.14 µM.

For the compound `COc1ccccc1C#Cc1ccccc1C#Cc1ccc(OCCCCCCOc2ccccc2C#Cc2ccccc2C#Cc2ccccc2OC)cc1`, the GI50 in the experiment with HL-60(TB) leukemia is greater than 100 µM; in the experiment with HT29 colon, greater than 100000 nM; with M14 melanoma it was greater than 100000 nM; with MALME-3M melanoma, greater than 100000 nM; in the experiment on NCI/ADR-RES ovarian it was greater than 100 µM; in the experiment with OVCAR-5 ovarian, greater than 100 µM. The GI50 is greater than 100 µM with OVCAR-8 ovarian, greater than 100000 nM in the experiment on RXF 393 renal, greater than 100000 nM in the experiment with SK-MEL-28 melanoma and greater than 100000 nM in the experiment with SK-MEL-5 melanoma. The TGI in the experiment with HL-60(TB) leukemia, with HT29 colon, in the experiment on M14 melanoma, in the experiment with MALME-3M melanoma, in the experiment on NCI/ADR-RES ovarian and with OVCAR-5 ovarian was greater than 100 µM each time. For the same compound, the TGI in the experiment on OVCAR-8 ovarian, in the experiment on RXF 393 renal, with SK-MEL-28 melanoma and in the experiment with SK-MEL-5 melanoma was greater than 100 µM each time.

Turning to `Cc1ccc2c(C(C[N+](=O)[O-])c3ccccc3)c(-c3ccccc3)[nH]c2c1` (stereo not given), the GI50 in the experiment with HL-60(TB) leukemia was 22.6 µM; in the experiment on HT29 colon, 20900 nM; in the experiment on M14 melanoma, 16000 nM; in the experiment with MALME-3M melanoma, 10200 nM; in the experiment on NCI/ADR-RES ovarian, 14.2 µM; with OVCAR-5 ovarian, 85.3 µM. Further, the GI50 with OVCAR-8 ovarian was 33 µM; in the experiment with RXF 393 renal it was 10500 nM; with SK-MEL-28 melanoma, greater than 95000 nM; in the experiment with SK-MEL-5 melanoma it was 50600 nM. For the same compound, the TGI in the experiment on HL-60(TB) leukemia is 57.2 µM; with HT29 colon, greater than 95 µM; in the experiment with M14 melanoma, greater than 95 µM; with MALME-3M melanoma, greater than 95 µM; in the experiment on NCI/ADR-RES ovarian, greater than 95 µM; in the experiment on OVCAR-5 ovarian it was greater than 95 µM. Moreover, the TGI is greater than 95 µM with OVCAR-8 ovarian, 81.3 µM in the experiment on RXF 393 renal, greater than 95 µM with SK-MEL-28 melanoma and greater than 95 µM with SK-MEL-5 melanoma.
